Laboratory results taken from US9440972B2, “Pyrido[2,3-d]pyrimidine-2,4(1 H,3H)-dione derivatives” (Hydra Biosciences, Inc., priority 2014, dated 2016).
pIC50: −log10 of the molar value.

Columns and labels:
TRPC5 channel [1] = biological target: T1, TRPC5 channel (Homo sapiens, UniProt Q9UL62); assay: Patch clamp experiments (whole-cell, LaCl3-activated TRPC5 current); format: cell-based; conditions: whole-cell patch clamp in TRPC5-expressing HEK293 TREx cells; block of inward and outward currents in continued presence of LaCl3; IC50 estimated
T1 construct: expressed in transfected cells; host or cells: HEK293/TREx (Invitrogen), tetracycline-induced
T1 sequence (Q9UL62 1-973): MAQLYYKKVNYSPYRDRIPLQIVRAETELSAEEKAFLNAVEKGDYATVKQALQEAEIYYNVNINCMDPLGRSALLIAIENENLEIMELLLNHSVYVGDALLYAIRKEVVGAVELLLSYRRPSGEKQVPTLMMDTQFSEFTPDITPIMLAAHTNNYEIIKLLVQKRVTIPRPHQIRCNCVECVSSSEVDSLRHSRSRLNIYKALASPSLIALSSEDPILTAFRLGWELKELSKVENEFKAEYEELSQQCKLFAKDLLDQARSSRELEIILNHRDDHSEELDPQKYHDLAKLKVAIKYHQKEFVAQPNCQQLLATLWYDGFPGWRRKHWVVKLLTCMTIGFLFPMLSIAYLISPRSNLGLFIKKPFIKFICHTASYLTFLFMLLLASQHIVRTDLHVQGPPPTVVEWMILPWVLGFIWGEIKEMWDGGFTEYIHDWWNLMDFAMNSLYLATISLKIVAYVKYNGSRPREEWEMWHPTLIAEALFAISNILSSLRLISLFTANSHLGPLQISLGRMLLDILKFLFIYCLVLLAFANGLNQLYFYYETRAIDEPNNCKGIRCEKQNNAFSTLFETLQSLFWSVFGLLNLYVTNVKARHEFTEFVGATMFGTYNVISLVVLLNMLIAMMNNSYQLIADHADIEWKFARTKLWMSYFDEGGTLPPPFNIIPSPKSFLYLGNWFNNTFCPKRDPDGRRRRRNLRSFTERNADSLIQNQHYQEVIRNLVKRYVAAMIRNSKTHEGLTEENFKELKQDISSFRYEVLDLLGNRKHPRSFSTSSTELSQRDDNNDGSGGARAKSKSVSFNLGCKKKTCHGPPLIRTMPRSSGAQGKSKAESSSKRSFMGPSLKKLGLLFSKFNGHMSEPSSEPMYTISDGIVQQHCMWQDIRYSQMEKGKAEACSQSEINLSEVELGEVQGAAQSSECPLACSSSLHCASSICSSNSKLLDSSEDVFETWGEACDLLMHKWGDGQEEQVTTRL
From the text: Patch clamp experiments permit the detection of currents through the TRPC5 channel in the cell line described above. In normal whole-cell patch clamp recordings, a glass electrode is brought into contact with a single cell and a high-resistance (gigaohm) seal is established with the cell membrane. The membrane is then ruptured to achieve the whole-cell configuration, permitting control of the voltage of the cell membrane and measurement of currents flowing across the membrane using the amplifier attached to the electrode and resulting in the replacement of cytoplasm with the pipette solution. A perfusion system permits control of the extracellular solution, including the addition of blockers and activators of the current. The current can be activated by including 1.4 μM free Ca^2+ in the pipette (intracellular) solution, and 80 μM LaCl3 in the extracellular solution.
TRPC5 cells were induced 20-48 hours, removed from growth plates, and replated at low density (to attain good single-cell physical separation) on glass coverslips for measurement. In some cases, cells were grown in low density overnight on glass coverslips. Patch clamp recordings were made in the whole-cell mode with a holding potential of −40 mV. Every 5 seconds, a voltage ramp was applied from −120 to +100 mV, 400 ms in duration. Currents elicited were quantified at −80 mV and +80 mV. The internal solution consisted of 140 mM cesium aspartate, 10 mM HEDTA, 2 mM CaCl2, 2.27 mM MgCl2 and 10 mM HEPES, pH 7.2, with 1,400 nM calculated free Ca^2+. The external solution consisted of 150 mM NaCl, 4.5 mM KCl, 1 mM MgCl2, 2 mM CaCl2, 10 mM HEPES, 10 mM glucose, 1 mM EGTA, pH 7.4. Upon addition of LaCl3, TRPC5 current was induced only in TRPC5-expressing cells and not in parental HEK293 TREx cells. Removal of the LaCl3 stimulus causes most of the current to go away. Potential blockers were tested for ability to block both inward and outward currents in the continued presence of LaCl3.
IC50 of a compound of Formula (I) was estimated by testing the compound at 5 μM and 500 nM. […] IC50 for a compound of Formula (I) between 500 nM and 5 μM was similarly estimated.

TRPC5 channel [2] = biological target: T1, TRPC5 channel; assay: High throughput screening assay: Fluo4 cell-based fluorescence assay of intracellular Ca2+ rise; conditions: HEK293/TREx cells inducibly expressing TRPC5, 0.027-20 μM in triplicate, NF = no IC50 curve could be fit
From the text: The assay depended on detection of the rise in intracellular Ca2+ concentration ([Ca2+]i) following channel activation in cells inducibly expressing the TRPC5 channel. Ca2+ rise was quantified with the use of fluorescent Ca2+ indicators that were loaded into cells and thereafter indicated the [Ca2+]i Ca2+ influx followed activation of the TRPC5 channel. Compounds inhibiting the [Ca2+]i rise were considered hits for further investigation.
The commercially available HEK293/TREx line (Invitrogen) was stably transfected with a TRPC5 construct and screened by conventional calcium imaging to find clones with TRPC5 expression following stimulation with 1 μg/ml tetracycline. These cells were maintained in the growth medium recommended by the manufacturer supplemented with 100 μg/ml hygromycin to promote retention of the TRPC5 construct. After growing to near confluency, cells were plated at a density of ˜35,000 cells/well in 384 well CellBind plates (Corning) in the presence of 1 μg/ml tetracycline, and allowed to grow for 20-30 hrs. A nearly confluent monolayer resulted. Cells were then loaded with Ca2+ dye: Fura-2/AM or Fluo4/AM was added to the wells to a final concentration of 4 μM or 0.5 μM, respectively, and incubated for 80 min or 60 min, respectively, at room temperature. Supernatant was then removed from the cells by inverting plates with a sharp flick, and 25 μl Hank's Balanced Salt Solution (HBSS; 0.185 g/l D-glucose, 0.9767 g/l MgS04 (anhydrous), 0.4 g/l KCl, 0.06 g/l KH2PO4 (anhydrous), 0.35 g/l NaHCO3, 8.0 g/l NaCl, and 0.04788 g/l Na2HPO4 (anhydrous); pH 7.4) was then added to each well. Following ˜0.5 hour for recovery from loading, cells were assayed using the Hamamatsu FDSS 6000 system, which permitted illumination alternately at 340 nm and 380 nm for Fura-2 experiments, or at 485 nm for Fluo4 experiments. Frames were acquired at a rate of 0.2 Hz. During the assay, the plates were continuously vortexed, with pipette mixing of wells following addition of each reagent. For the screening assay, 26 μl of a diluted compound stock (at 50 μM) was added to each well for 2 minutes following the collection of a short (4 frame) baseline. 13 μl 62 mM high-Ca2+Ringer solution (4.17 ml of normal ringer (with 2 mM Ca2+) plus 5.83 ml of isotonic calcium ringer (105 mM Ca2+; in this ringer all sodium has been replaced with calcium)) was then added to each well, achieving a final concentration of 14 mM Ca2+ and 10 μM test compound. Data was collected for ˜3 minutes following addition of high Ca2+Ringer, where the fluorescent intensity (for Fluo4) and the F340/F380 ratio (for Fura-2) were proportional to the [Ca2+]i Negative controls consisted of HEK293/TREx TRPC5 cells exposed to high Ca2+ solution, but no compound. Positive control conditions consisted of addition of 2-APB, a promiscuous blocker of TRPC5 and other channels, to columns 23 and 24 of the plates, to a final concentration of 200 μM. These controls defined a screening window, and “hits” were defined as those compounds inhibiting the fluorescence response by at least 40%. IC50 values were determined for compounds defined as “hits.” The Fluo4 cell-based fluorescence assay was used to determine the intracellular Ca2+ concentration in the presence of varying drug concentration. Final concentrations of compounds tested were 20 μM, 6.667 μM, 2.222 μM, 0.741 μM, 0.247 μM, 0.082 μM, and 0.027 μM. Compounds were tested in triplicate at all concentrations. Standard software was used to fit IC50 curves. A value of NF was assigned when no IC50 curves could not be fit.
Additionally or alternatively, efficacy can be represented as % inhibition in the presence (of a given concentration of compound) versus the absence of compound or in comparison to a control compound. For example, efficacy can be represented as % inhibition of ion flux in the presence versus the absence of compound.

pIC50 (TRPC5 channel [1])	pIC50 (TRPC5 channel [2])	Structure (SMILES)
> 9.00	6.57	Cn1c(=O)n(CCCO)c(=O)c2c(Cc3ccc(Cl)cc3)c(Oc3cccc(OC(F)(F)F)c3)cnc21 [Compound 21, 5-(4-chlorobenzyl)-3-(3-hydroxypropyl)-1-methyl-6-(3-(trifluoromethoxy)phenoxy)pyrido[2,3-d]pyrimidine-2,4(1H,3H)-dione]
7.91	5.19	CC(C)CCc1c(-c2ccccc2C(C)C)cnc2c1c(=O)n(CCCO)c(=O)n2C [Compound 23, 3-(3-hydroxypropyl)-5-isopentyl-6-(2-isopropylphenyl)-1-methylpyrido[2,3-d]pyrimidine-2,4(1H,3H)-dione]
7.54	–	Cc1cncc(Oc2cnc3c(c2Cc2ccc(Cl)cc2)c(=O)n(CCCO)c(=O)n3C)c1 [Compound 27, 5-(4-chlorobenzyl)-3-(3-hydroxypropyl)-1-methyl-6-(5-methylpyridin-3-yloxy)pyrido[2,3-d]pyrimidine-2,4(1H,3H)-dione]
8.35	7.57	CC(C)Oc1cnc2c(c1Cc1ccccc1)c(=O)n(CCCO)c(=O)n2C [Compound 29, 5-benzyl-3-(3-hydroxypropyl)-6-isopropoxy-1-methylpyrido[2,3-d]pyrimidine-2,4(1H,3H)-dione]
> 9.00	6.45	Cn1c(=O)n(CCCO)c(=O)c2c(Cc3ccc(F)cc3)c(Oc3ccc(Cl)cc3)cnc21 [Compound 30, 6-(4-chlorophenoxy)-5-(4-fluorobenzyl)-3-(3-hydroxypropyl)-1-methylpyrido[2,3-d]pyrimidine-2,4(1H,3H)-dione]
8.83	7.57	CC(C)Oc1cnc2c(c1Cc1ccc(F)cc1)c(=O)n(CCCO)c(=O)n2C [Compound 31, 5-(4-fluorobenzyl)-3-(3-hydroxypropyl)-6-isopropoxy-1-methylpyrido[2,3-d]pyrimidine-2,4(1H,3H)-dione]
8.08	6.81	Cn1c(=O)n(CCCO)c(=O)c2c(Cc3ccccc3)c(-c3cccc(F)c3)cnc21 [Compound 34, 5-benzyl-6-(3-fluorophenyl)-3-(3-hydroxypropyl)-1-methylpyrido[2,3-d]pyrimidine-2,4(1H,3H)-dione]
8.47	7.85	Cn1c(=O)n(CCCO)c(=O)c2c(Cc3ccc(Cl)cn3)c(-c3cccc(OC(F)(F)F)c3)cnc21 [Compound 35, 5-((5-chloropyridin-2-yl)methyl)-3-(3-hydroxypropyl)-1-methyl-6-(3-(trifluoromethoxy)phenyl)pyrido[2,3-d]pyrimidine-2,4(1H,3H)-dione]
8.92	7.57	CC(C)Oc1cnc2c(c1Cc1ccc(Cl)cc1)c(=O)n(CCCO)c(=O)n2C [Compound 36, 5-(4-chlorobenzyl)-3-(3-hydroxypropyl)-6-isopropoxy-1-methylpyrido[2,3-d]pyrimidine-2,4(1H,3H)-dione]
7.29	–	Cn1c(=O)n(CCCO)c(=O)c2c(C(O)c3ccc(Cl)cc3)c(-c3cccc(OC(F)(F)F)c3)cnc21 (stereo not shown) [Compound 39, 5-((4-chlorophenyl)(hydroxyl)methyl)-3-(3-hydroxypropyl)-1-methyl-6-(3-(trifluoromethoxy)phenyl)pyrido[2,3-d]pyrimidine-2,4(1H,3H)-dione]
8.54	–	Cn1c(=O)n(CCCO)c(=O)c2c(Cc3ccc(Cl)cc3)c(-c3cccc(OC(F)(F)F)c3)cnc21 [Compound 40, 5-(4-chlorobenzyl)-3-(3-hydroxypropyl)-1-methyl-6-(3-(trifluoromethoxy)phenyl)pyrido[2,3-d]pyrimidine-2,4(1H,3H)-dione]
